Laboratory results: patent US20080082038A1, “Medical Device including a Bioactive in a Non-ionic and an Ionic Form and Methods of Preparation Thereof” (Vance Products Incorporated, d/b/a/ Cook Urological …, priority 2006, published 2008)
Structures can show the parent of a compound that is named as a salt. Where two headings read alike, the source gives them in different places.

Experiments:
[1] = Solubility of bupivacaine free-base and salt in water and ethanol; type: physicochemical
Protocol: In water, the free-base (unionized form) of bupivacaine is much less soluble in water than the salt form (bupivacaine-HCl). A water suspension of free-base in water has a pH of 7.85. […] By lowering the pH, the ratio of protonated bupivacaine (ionized) to unprotonated bupivacaine (unionized) increases.
(§1) Stents, prepared as described in Example 1, are imbibed in 5% bupivacaine-HCl in water/ethanol for 20 minutes at 45° C.

[2] = Elution of deposited drug from imbibed stents in buffered saline solution (HPLC); type: physicochemical; conditions: for rate of elution of drug from imbibed polyurethane stent: polyurethane stent imbibed with the named form
Protocol: as §1
The amount of drug deposited on the stent is determined by high performance liquid chromatography (HPLC). The rate of bupivacaine dissolution is determined by measuring the elution profiles using HPLC.
The solubility and thus the ratio of bupivacaine to bupivacaine-HCl was determined by the elution of the deposited drug in buffered saline solution (pH=7.4) mimicking a bodily fluid.

[3] = buffered saline solution pH=7.4

SMILES	solubility ([1]; aqueous buffer, water, pH between 1.8 and 6, read-out: solubility (dissolved in water))	solubility ([1]; ethanol, organic solvent or mixture, read-out: solubility in ethanol)	solubility ([1]; water, read-out: solubility in water)	rate of elution of drug from imbibed polyurethane stent [2]	solubility in aqueous solution relative to the bupivacaine-salt ([1]; aqueous solution)	pH of water suspension of free-base ([1]; suspension in water)	solubility ([1]; water, pH 7.85, water, thermodynamic from solid, read-out: solubility)	elution of the drug on day one and day two, ethanol solution relative to water solution [2, 3]	solubility of the deposited drug, ethanol deposition relative to water deposition [2, 3]	rate of elution of drug from imbibed polyurethane stent ([2]; listed as bupivacaine free-base)
CCCCN1CCCCC1C(=O)Nc1c(C)cccc1C (stereo not shown) [bupivacaine-HCl]	40 to 50 mg/mL	125 mg/mL	40 mg/mL	can elute more quickly	–	–	–	–	–	–
CCCCN1CCCCC1C(=O)Nc1c(C)cccc1C (stereo not shown) [bupivacaine]	–	–	–	–	at least two orders of magnitude less soluble	7.85	~0.25 mg/mL	approximately six times	close to six times greater	greatly reduced
